Data from patent US10072001B2, “Tank-binding kinase inhibitor compounds” (Gilead Sciences, Inc., priority 2014, dated 2018).
pIC50: −log10 of the molar value.

What was measured:
IKKε = IKKε (Homo sapiens (Human), UniProt Q14164); experiment: TR-FRET kinase assay, IKKε; assay type: biochemical; conditions: full length recombinant IKKε 0.3 nM, 2x Km ATP, 1 μM peptide, 240 min at 25° C.; geometric mean of minimum four determinations
Excerpt: Biological Assay for TBK1 and IKKs:

TBK1 = TBK1 (Homo sapiens (Human), UniProt Q9UHD2); experiment: TR-FRET kinase assay, TBK1; conditions: read-out: TBK1-IC50; full length recombinant TBK1 2.5 nM, 2x Km ATP, 1 μM peptide, 240 min at 25° C.; geometric mean of minimum four determinations
Sequence of TBK1 (Q9UHD2 whole entry): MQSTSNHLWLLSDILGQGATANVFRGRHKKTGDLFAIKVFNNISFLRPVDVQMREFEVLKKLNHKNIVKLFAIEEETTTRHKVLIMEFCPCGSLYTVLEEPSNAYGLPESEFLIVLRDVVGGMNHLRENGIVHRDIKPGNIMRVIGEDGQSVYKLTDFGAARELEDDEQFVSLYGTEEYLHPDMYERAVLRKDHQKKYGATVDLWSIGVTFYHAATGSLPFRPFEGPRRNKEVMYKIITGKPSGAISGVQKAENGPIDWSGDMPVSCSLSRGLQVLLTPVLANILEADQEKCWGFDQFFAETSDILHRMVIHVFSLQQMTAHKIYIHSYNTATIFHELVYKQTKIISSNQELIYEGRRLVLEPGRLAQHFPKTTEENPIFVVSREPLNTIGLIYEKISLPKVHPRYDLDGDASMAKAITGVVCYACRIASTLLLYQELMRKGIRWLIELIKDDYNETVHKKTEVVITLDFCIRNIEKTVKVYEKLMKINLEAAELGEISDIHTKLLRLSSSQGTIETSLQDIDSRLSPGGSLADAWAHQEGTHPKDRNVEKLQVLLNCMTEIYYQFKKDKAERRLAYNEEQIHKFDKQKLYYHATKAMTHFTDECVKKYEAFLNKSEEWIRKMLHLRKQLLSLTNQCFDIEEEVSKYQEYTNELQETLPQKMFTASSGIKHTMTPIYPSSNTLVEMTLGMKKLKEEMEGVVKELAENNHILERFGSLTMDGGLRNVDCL

Sequence of IKKε (Q14164 whole entry): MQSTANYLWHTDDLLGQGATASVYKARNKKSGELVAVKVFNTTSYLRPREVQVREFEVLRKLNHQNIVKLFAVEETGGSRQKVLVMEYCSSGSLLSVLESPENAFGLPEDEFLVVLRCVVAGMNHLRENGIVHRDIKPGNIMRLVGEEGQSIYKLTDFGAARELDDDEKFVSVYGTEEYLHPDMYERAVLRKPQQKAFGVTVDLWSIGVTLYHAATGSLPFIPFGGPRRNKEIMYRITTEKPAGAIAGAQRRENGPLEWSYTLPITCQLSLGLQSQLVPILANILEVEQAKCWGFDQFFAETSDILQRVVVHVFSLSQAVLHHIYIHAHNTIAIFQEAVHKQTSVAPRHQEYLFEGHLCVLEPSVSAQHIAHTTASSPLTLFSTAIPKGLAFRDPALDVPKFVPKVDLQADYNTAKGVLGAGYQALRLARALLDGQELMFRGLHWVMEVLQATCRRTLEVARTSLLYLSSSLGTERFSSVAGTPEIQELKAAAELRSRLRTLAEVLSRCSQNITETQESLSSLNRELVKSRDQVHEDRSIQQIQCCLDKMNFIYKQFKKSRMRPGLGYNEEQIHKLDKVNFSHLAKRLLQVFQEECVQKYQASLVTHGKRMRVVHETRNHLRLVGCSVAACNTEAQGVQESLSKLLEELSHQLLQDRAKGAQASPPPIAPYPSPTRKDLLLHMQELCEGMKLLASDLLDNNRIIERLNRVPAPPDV

| pIC50 (IKKε) | pIC50 (TBK1) | SMILES |
| --- | --- | --- |
| 8.46 | 8.30 | N#Cc1cc(-c2ncnc3[nH]c(-c4cccc(CN5CCOCC5)c4)cc23)ccc1OC1CCN(C(=O)CO)CC1 [Example 184, 2-((1-(2-hydroxyacetyl)piperidin-4-yl)oxy)-5-(6-(3-(morpholinomethyl)phenyl)-7H-pyrrolo[2,3-d]pyrimidin-4-yl)benzonitrile] |
| 8.84 | 8.74 | N#Cc1cc(-c2ccnc3[nH]c(-c4ccc(N5CCN(C6COC6)CC5)cc4)cc23)ncc1OC1CCN(C(=O)CO)CC1(F)F (centres unmarked) [Example 176, 5-((3,3-difluoro-1-(2-hydroxyacetyl)piperidin-4-yl)oxy)-2-(2-(4-(4-(oxetan-3-yl)piperazin-1-yl)phenyl)-1H-pyrrolo[2,3-b]pyridin-4-yl)isonicotinonitrile] |
| 8.64 | 8.81 | CC(C)(O)c1ccc(-c2cc3c(-c4ccc(O[C@@H]5CCN(C(=O)CO)C5)c(C#N)c4)ccnc3[nH]2)cc1 [Example 149, (R)-2-((1-(2-hydroxyacetyl)pyrrolidin-3-yl)oxy)-5-(2-(4-(2-hydroxypropan-2-yl)phenyl)-1H-pyrrolo[2,3-b]pyridin-4-yl)benzonitrile] |
| 8.95 | 8.81 | CN1CCN(C(=O)c2ccc(-c3cc4c(-c5ccc(OC6CCN(C(=O)CO)CC6)c(C#N)c5)ncnc4[nH]3)cc2)CC1 [Example 161, 2-((1-(2-Hydroxyacetyl)piperidin-4-yl)oxy)-5-(6-(4-(4-methylpiperazine-1-carbonyl)phenyl)-7H-pyrrolo[2,3-d]pyrimidin-4-yl)benzonitrile] |
| 8.06 | 8.63 | C[C@H](O)C(=O)N1CCC(Oc2ccc(-c3ncnc4[nH]c(-c5ccc(N6CCOCC6)cc5)nc34)cc2C#N)CC1 [Example 234, (S)-2-((1-(2-hydroxypropanoyl)piperidin-4-yl)oxy)-5-(8-(4-morpholinophenyl)-9H-purin-6-yl)benzonitrile] |
| 8.31 | 8.48 | N#Cc1cc(-c2ncnc3[nH]c(-c4ccc(CN5CCOCC5)cc4)nc23)ccc1OC1CCOCC1 [Example 252, 5-(8-(4-(morpholinomethyl)phenyl)-9H-purin-6-yl)-2-((tetrahydro-2H-pyran-4-yl)oxy)benzonitrile] |
| 7.16 | 6.99 | CN(C)C(=O)/C=C/c1cc2c(-c3ccc(OC4CCOCC4)c(C#N)c3)ccnc2[nH]1 [Example 179, 3-(4-(3-cyano-4-((tetrahydro-2H-pyran-4-yl)oxy)phenyl)-1H-pyrrolo[2,3-b]pyridin-2-yl)-N,N-dimethylacrylamide] |
| < 6.00 | < 6.00 | CC(C)(C)OC(=O)N1CCC(Oc2ccc(-c3ncnc4[nH]c(-c5ccc(N6CCOCC6)cc5)nc34)cc2C#N)CC1 [Example 203, tert-butyl 4-(2-cyano-4-(8-(4-morpholinophenyl)-9H-purin-6-yl)phenoxy)piperidine-1-carboxylate] |
| 7.63 | 8.33 | COc1ccc(-c2nc3c(-c4ccc(OC5CCOCC5)c(C#N)c4)ncnc3[nH]2)cc1 [Example 146, 5-(8-(4-methoxyphenyl)-9H-purin-6-yl)-2-((tetrahydro-2H-pyran-4-yl)oxy)benzonitrile] |
| 7.02 | 7.25 | N#Cc1cc(-c2ncnc3[nH]c(-c4ccc(N5CCOCC5)cc4)cc23)ccc1OC1CC2(COC2)C1 [Example 164, 2-(2-Oxaspiro[3.3]heptan-6-yloxy)-5-(6-(4-morpholinophenyl)-7H-pyrrolo[2,3-d]pyrimidin-4-yl)benzonitrile] |
| 7.21 | 7.75 | N#Cc1cc(-c2ccnc3[nH]c(-c4ccc(N5CCOCC5)cc4)nc23)ccc1O[C@@H]1CCNC1 [Example 195, (R)-5-(2-(4-morpholinophenyl)-3H-imidazo[4,5-b]pyridin-7-yl)-2-(pyrrolidin-3-yloxy)benzonitrile] |

The remaining lines, values behind:

| SMILES | pIC50 (IKKε) | pIC50 (TBK1) |
| --- | --- | --- |
| N#Cc1cc(-c2ccnc3[nH]c(-c4ccc(N5CCOCC5)cc4)cc23)ccc1O[C@H]1CCNC1 [Example 22, (S)-5-(2-(4-morpholinophenyl)-1H-pyrrolo[2,3-b]pyridin-4-yl)-2-(pyrrolidin-3-yloxy)benzonitrile] | 6.88 | 7.40 |
| N#Cc1cc(-c2ccnc3[nH]c(-c4ccc(N5CCOCC5)cc4)cc23)ccc1OC1CCNCC1 [Example 18, 5-(2-(4-morpholinophenyl)-1H-pyrrolo[2,3-b]pyridin-4-yl)-2-(piperidin-4-yloxy)benzonitrile] | 7.48 | 7.77 |
| COc1ccc(-c2cc3c(-c4ccc(OC5CCN(C(=O)CO)CC5)c(C#N)c4)ncnc3[nH]2)c(C)c1 [Example 131, 2-((1-(2-hydroxyacetyl)piperidin-4-yl)oxy)-5-(6-(4-methoxy-2-methylphenyl)-7H-pyrrolo[2,3-d]pyrimidin-4-yl)benzonitrile] | 7.91 | 8.25 |
| N#Cc1cc(-c2ccnc3[nH]c(-c4cnn(C5COC5)c4)cc23)ccc1OC1CCOCC1 [Example 6, 5-(2-(1-(oxetan-3-yl)-1H-pyrazol-4-yl)-1H-pyrrolo[2,3-b]pyridin-4-yl)-2-((tetrahydro-2H-pyran-4-yl)oxy)benzonitrile] | 8.31 | 8.50 |
| N#CCC(=O)N1CCC(Oc2ccc(-c3ccnc4[nH]c(-c5ccc(N6CCOCC6)cc5)cc34)cc2C#N)CC1 [Example 20, 2-((1-(2-cyanoacetyl)piperidin-4-yl)oxy)-5-(2-(4-morpholinophenyl)-1H-pyrrolo[2,3-b]pyridin-4-yl)benzonitrile] | 7.56 | 8.03 |
| CN(C)CC(=O)N1CC[C@@H](Oc2ccc(-c3ccnc4[nH]c(-c5ccc(N6CCOCC6)cc5)cc34)cc2C#N)C1 [Example 30, (R)-2-((1-(2-(dimethylamino)acetyl)pyrrolidin-3-yl)oxy)-5-(2-(4-morpholinophenyl)-1H-pyrrolo[2,3-b]pyridin-4-yl)benzonitrile] | 6.87 | 7.15 |
| N#Cc1cc(-c2ccnc3[nH]c(-c4ccc(N5CCOCC5)cc4)cc23)cnc1OC1CCOCC1 [Example 29, 5-(2-(4-morpholinophenyl)-1H-pyrrolo[2,3-b]pyridin-4-yl)-2-((tetrahydro-2H-pyran-4-yl)oxy)nicotinonitrile] | 6.62 | 7.83 |
| N#Cc1cc(-c2ccnc3[nH]c(-c4ccccc4)cc23)ccc1OC1CCOCC1 [Example 83, 5-(2-phenyl-1H-pyrrolo[2,3-b]pyridin-4-yl)-2-((tetrahydro-2H-pyran-4-yl)oxy)benzonitrile] | 7.70 | < 6.00 |
| CC(O)C(=O)N1CC[C@@H](Oc2ccc(-c3ccnc4[nH]c(-c5ccc(N6CCOCC6)cc5)cc34)cc2C#N)C1 (stereo partly drawn) [Example 27, 2-(((3R)-1-(2-hydroxypropanoyl)pyrrolidin-3-yl)oxy)-5-(2-(4-morpholinophenyl)-1H-pyrrolo[2,3-b]pyridin-4-yl)benzonitrile] | 7.87 | 8.18 |
| COc1cc(-c2cc3c(-c4ccc(OC5CCNCC5)c(C#N)c4)ncnc3[nH]2)ccc1N1CCOCC1 [Example 122, 5-(6-(3-methoxy-4-morpholinophenyl)-7H-pyrrolo[2,3-d]pyrimidin-4-yl)-2-(piperidin-4-yloxy)benzonitrile] | 6.94 | 7.67 |
| N#Cc1cc(-c2ncnc3[nH]c(-c4cccc(N5CCOCC5)c4)cc23)ccc1N1CC(O)C1 [Example 110, 2-(3-hydroxyazetidin-1-yl)-5-(6-(3-morpholinophenyl)-7H-pyrrolo[2,3-d]pyrimidin-4-yl)benzonitrile] | 7.24 | 7.90 |
